Here are results for six cell lines from the supplement of paper PMC10307832.

Holding throughout (assay): relative viability (nuclei count vs DMSO), 5 days (fraction); higher = more cells survive
Compound in the test “Trametinib + Decitabine”: CC(=O)Nc1cccc(-n2c(=O)n(C3CC3)c(=O)c3c(Nc4ccc(I)cc4F)n(C)c(=O)c(C)c32)c1 [Trametinib] + Nc1ncn([C@H]2C[C@H](O)[C@@H](CO)O2)c(=O)n1 [Decitabine] (partner 2 µM)
Summed up: (§1)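 Relative viability equals treated-well nuclei counts divided by vehicle-well nuclei counts. Counts came from 4× images of lung cancer cell lines grown in 1536-well plates for 5 days after pin-tool dosing on the day after seeding. Dosing used one drug alone or a fixed anchor-drug dose plus five library-drug doses (not always all listed) in √10 steps, and values are medians of duplicate plates.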

Compound in test [1]: CN1C=C(C2=CC=CC=C21)/C=C\3/C4=C(C=CC=N4)NC3=O + CS(=O)(=O)CCNCc1ccc(-c2ccc3ncnc(Nc4ccc(OCc5cccc(F)c5)c(Cl)c4)c3c2)o1 [Lapatinib] (partner 2 µM)
In outline:
as §1

Compound in the test “Trametinib + Foretinib”: CC(=O)Nc1cccc(-n2c(=O)n(C3CC3)c(=O)c3c(Nc4ccc(I)cc4F)n(C)c(=O)c(C)c32)c1 [Trametinib] + COc1cc2c(Oc3ccc(NC(=O)C4(C(=O)Nc5ccc(F)cc5)CC4)cc3F)ccnc2cc1OCCCN1CCOCC1 [Foretinib] (partner 0.25 µM)
Summed up:
as §1

Take NCI-H23: the relative viability came to 0.291 in the test with Trametinib + Decitabine (first compound 0.0025 µM); 0.297 with Trametinib + Decitabine (first compound 0.007906 µM); 0.281 in the test with Trametinib + Decitabine (first compound 0.025 µM); 0.269 in the test with Trametinib + Decitabine (first compound 0.07906 µM); 0.258 with Trametinib + Decitabine (first compound 0.25 µM); 0.926 in test [1] (first compound 0.02 µM). Besides, the relative viability in test [1] (first compound 0.06325 µM) amounted to 0.952; in test [1] (first compound 0.6325 µM) it was 0.892; in test [1] (first compound 2 µM), 0.991; with Trametinib + Foretinib (first compound 0.0025 µM), 0.874; with Trametinib + Foretinib (first compound 0.007906 µM), 0.675; with Trametinib + Foretinib (first compound 0.025 µM), 0.549. Also, the relative viability turned out to be 0.513 in the test with Trametinib + Foretinib (first compound 0.07906 µM) and 0.343 with Trametinib + Foretinib (first compound 0.25 µM).
Take NCI-H322M: the relative viability came out at 0.691 in the test with Trametinib + Decitabine (first compound 0.0025 µM); 0.681 in the test with Trametinib + Decitabine (first compound 0.007906 µM); 0.631 with Trametinib + Decitabine (first compound 0.025 µM); 0.585 with Trametinib + Decitabine (first compound 0.07906 µM); 0.566 with Trametinib + Decitabine (first compound 0.25 µM); 0.566 in test [1] (first compound 0.02 µM). Besides, the relative viability in test [1] (first compound 0.06325 µM) worked out at 0.631; in test [1] (first compound 0.2 µM), 0.597; in test [1] (first compound 0.6325 µM), 0.548; in test [1] (first compound 2 µM), 0.631; with Trametinib + Foretinib (first compound 0.0025 µM), 0.813; with Trametinib + Foretinib (first compound 0.007906 µM) it was 0.769. For the same cell line, the relative viability came to 0.677 in the test with Trametinib + Foretinib (first compound 0.025 µM), 0.59 with Trametinib + Foretinib (first compound 0.07906 µM) and 0.498 with Trametinib + Foretinib (first compound 0.25 µM).
As to NCI-H358, the relative viability with Trametinib + Decitabine (first compound 0.0025 µM) was 0.2; with Trametinib + Decitabine (first compound 0.007906 µM), 0.191; with Trametinib + Decitabine (first compound 0.025 µM), 0.142; with Trametinib + Decitabine (first compound 0.07906 µM), 0.209; with Trametinib + Decitabine (first compound 0.25 µM), 0.155; in test [1] (first compound 0.02 µM) it was 0.46. Besides, the relative viability in test [1] (first compound 0.06325 µM) was 0.419; in test [1] (first compound 0.2 µM) it was 0.436; in test [1] (first compound 0.6325 µM), 0.55; in test [1] (first compound 2 µM), 0.446; with Trametinib + Foretinib (first compound 0.0025 µM) it was 0.49; with Trametinib + Foretinib (first compound 0.007906 µM), 0.302. Further, the relative viability in the test with Trametinib + Foretinib (first compound 0.025 µM) stood at 0.264; in the test with Trametinib + Foretinib (first compound 0.07906 µM) it was 0.18; with Trametinib + Foretinib (first compound 0.25 µM), 0.166.
In the case of NCI-H441, the relative viability was 0.272 with Trametinib + Decitabine (first compound 0.0025 µM); 0.248 with Trametinib + Decitabine (first compound 0.007906 µM); 0.259 with Trametinib + Decitabine (first compound 0.025 µM); 0.25 in the test with Trametinib + Decitabine (first compound 0.07906 µM); 0.168 with Trametinib + Decitabine (first compound 0.25 µM); 1.03 in the test with Trametinib + Foretinib (first compound 0.0025 µM). Also, the relative viability with Trametinib + Foretinib (first compound 0.007906 µM) came out at 1.01; with Trametinib + Foretinib (first compound 0.025 µM), 0.699; in the test with Trametinib + Foretinib (first compound 0.07906 µM) it was 0.742; with Trametinib + Foretinib (first compound 0.25 µM), 0.703.
Turning to NCI-H460, the relative viability with Trametinib + Decitabine (first compound 0.0025 µM) was 0.481; in the test with Trametinib + Decitabine (first compound 0.007906 µM), 0.389; with Trametinib + Decitabine (first compound 0.025 µM) it was 0.361; with Trametinib + Decitabine (first compound 0.07906 µM) it was 0.305; with Trametinib + Decitabine (first compound 0.25 µM) it was 0.112; in test [1] (first compound 0.02 µM), 1.11. Also, the relative viability in test [1] (first compound 0.06325 µM) amounted to 1.06; in test [1] (first compound 0.2 µM), 1.09; in test [1] (first compound 2 µM), 1.23; with Trametinib + Foretinib (first compound 0.0025 µM), 0.942; in the test with Trametinib + Foretinib (first compound 0.007906 µM), 0.816; with Trametinib + Foretinib (first compound 0.025 µM), 0.549. Further, the relative viability with Trametinib + Foretinib (first compound 0.07906 µM) was found to be 0.21; with Trametinib + Foretinib (first compound 0.25 µM), 0.11.
Turning to NCI-H520, the relative viability with Trametinib + Decitabine (first compound 0.0025 µM) came to 0.445; with Trametinib + Decitabine (first compound 0.007906 µM), 0.504; in the test with Trametinib + Decitabine (first compound 0.025 µM) it was 0.535; in the test with Trametinib + Decitabine (first compound 0.07906 µM) it was 0.502; in the test with Trametinib + Decitabine (first compound 0.25 µM), 0.473; in test [1] (first compound 0.02 µM) it was 0.741. The relative viability in test [1] (first compound 0.06325 µM) is 0.86; in test [1] (first compound 0.2 µM), 0.841; in test [1] (first compound 0.6325 µM) it was 0.981; in test [1] (first compound 2 µM), 0.937; with Trametinib + Foretinib (first compound 0.0025 µM) it was 0.874; with Trametinib + Foretinib (first compound 0.007906 µM), 0.785. The relative viability in the test with Trametinib + Foretinib (first compound 0.025 µM) came out at 0.866; with Trametinib + Foretinib (first compound 0.07906 µM), 0.739; with Trametinib + Foretinib (first compound 0.25 µM) it was 0.585.
